BigSolDB 2.1

NCCCCCCN
solubility (mole fraction)
Conditions | in 1,4-dioxane | in cyclohexane | in isobutanol | in n-butanol | in n-hexane | in n-propanol | in toluene
278.15 K | – | 0.0071 | 0.193 | 0.35 | 0.0103 | 0.315 | 0.132
283.15 K | 0.135 | 0.0092 | 0.236 | 0.389 | 0.0149 | 0.354 | 0.161
288.15 K | 0.194 | 0.0126 | 0.288 | 0.448 | 0.018 | 0.391 | 0.209
293.15 K | 0.267 | 0.0187 | 0.351 | 0.508 | 0.0268 | 0.431 | 0.259
298.15 K | 0.348 | 0.0309 | 0.427 | 0.584 | 0.0449 | 0.485 | 0.334
303.15 K | 0.467 | 0.053 | 0.521 | 0.652 | 0.0729 | 0.552 | 0.434
